# From patent publication US5703056A, “Non-invasive imaging of gene transfer” (priority 1995, dated 1997)
# Legend:
# [1] = target: HSV1-TK (Human alphaherpesvirus 1 strain 17, UniProt P0DTH5); test: Accumulation of radiolabelled marker substrates in RG2TK+ transduced and RG2 wild-type cells, normalized to TdR; format: cell-based, herpes simplex virus
# Protocol: Source of radiolabelled "marker substrates". […] No carrier-added 5-[^123 I]-deoxyuridine (IUdR) was prepared by reacting 2-deoxyuridine (UdR) with carrier-free ^123 I-labelled sodium iodide in an iodogen coated reaction vial.
# Comparison of "marker substrates" for identifying HSV1-tk gene expression in tissue culture. […] Each of these substrates were developed for or used as an anti-viral agent; they are phosphorylated by HSV1-TK and can be radiolabelled for noninvasive imaging.
# Wild-type (nontransduced) RG2 cells were studied as a reference control. […] The cells were dislodged from the Petri dishes with a soft scraper, poured into 15 ml conical tubes, centrifuged and the medium aspirated. The tubes were cut to facilitate removing cells; they were blotted, placed in pre-weighed vials, weighed and prepared for counting. Samples were assayed for ^3 H- and ^14 C-radioactivity using a Packard B1600 TriCarb beta spectrometer using dual-channel and external standard splash and quench correction techniques. The medium was also counted before and following incubation. The data was expressed as a harvested cell-to-medium concentration ratio (dpm/g cells.div.dpm/ml medium).
# Data analysis. […] These two related measures are useful to evaluate the intensity of the images (e.g., high "sensitivity") and the ability to differentiate between HSV1-TK and endogenous-TK in the images (e.g., high "selectivity"). The "selectivity" measure is not interpreted as a relative sensitivity (i.e., a value of 1 indicating equal sensitivity) of the substrate to HSV1-TK vs. endogenous-TK. […] They are intended for the direct comparison of substrates only.
# [2] = Calculated permeability surface area product (PS) of the cerebral capillaries; design: unit not given here
# Excerpt: Passage of the nucleosides across the blood brain barrier (BBB) is an important factor to consider in the design of radiolabelled 2'-fluoro-nucleoside analogues for imaging HSV1-TK expression in the brain. […] It is known that brain capillary permeability for many compounds is related to their octanol/water partition coefficient (P) and molecular weight. [Levin, V. N. J. Med. Chem., 23: 682-4, 1980] Several authors have described a relationship between the brain capillary permeability and log P or log P·Dm, where Dm is a measure of diffusibility. […] [Dischino, D. D., Welch, M. J., Kilbourn, M. N., and Raichle, M. E., J. Nucl. Med., 24: 1030-8, 1983] […] Fenstermacher, J. D. Drug transfer across the blood brain barrier. In: Topics in Pharmaceutical Sciences. Ed.: Breimer, D. D., and Speiser, P. Amsterdam: Elsevier, pp. 143-54, 1983; Fenstermacher, J. D., and Rapoport, S. I. In: Handbook of Physiology. The Cardiovascular System. Microcirculation. Bethesda, Md.: Am. Physiol. Soc., sect. 2, Vol. IV, pt. 2, chapt. 21, p. 969-1000, 1984; Fenstermacher, J. D. In: Implications of Blood-Brain Barrier and Its Manipulation. Basic Science Aspects. Ed. by Neuwelt, E., New York: Plenum, Vol. 1, Chapt. 6, pp. 132-55, 1988]
# Chain of HSV1-TK (P0DTH5 whole entry): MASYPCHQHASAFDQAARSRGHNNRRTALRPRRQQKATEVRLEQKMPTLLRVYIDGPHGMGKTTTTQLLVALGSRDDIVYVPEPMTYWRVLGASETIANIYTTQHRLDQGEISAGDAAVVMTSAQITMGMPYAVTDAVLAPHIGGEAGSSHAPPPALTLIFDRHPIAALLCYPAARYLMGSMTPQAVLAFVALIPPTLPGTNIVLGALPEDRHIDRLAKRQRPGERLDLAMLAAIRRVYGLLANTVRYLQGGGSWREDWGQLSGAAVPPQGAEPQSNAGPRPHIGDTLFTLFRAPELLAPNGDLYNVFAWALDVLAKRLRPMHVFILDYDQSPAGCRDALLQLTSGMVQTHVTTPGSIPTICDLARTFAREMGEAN
smiles,measurement,setting,value
"O=c1[nH]c(=O)n([C@@H]2O[C@H](CO)[C@@H](O)[C@@H]2F)cc1I [FIAU, 2'-fluoro-5-iodo-1-β-D-arabinofuranosyl-uracil]",Sensitivity* Δ(substrate/TdR)/Δ(HSV1TK mRNA/S28 RNA IOD),[1]; Data from FIG. 5,0.0090
same,Sensitivity* Δ(substrate/TdR)/Δ(HSV1TK mRNA/S28 RNA IOD),[1]; Data from FIG. 7B (different RG2TK cell lines),0.0086
same,PS*,[2]; calculated from measured log P and MW: log(PS)=5.2+log(P·Dm),0.59
same,PS+,[2]; calculated from published log P and MW: log(PS)=5.2+log(P·Dm),0.59
